In patent publication US20150031892A1, “SPHINGOLIPID METABOLITE MIMETICS” (Zhejiang University, priority 2012, published 2015):
Where two headings read alike, the source gives them in different places.

Tests used:
Type in all cases: cell-based
SW480 = experiment: MTT cytotoxicity assay, SW480 (colon cancer); conditions: Homo sapiens
SA = experiment: MTT cytotoxicity assay, SA (pancreatic cancer as headed)
Experimental: (§1) Cell survival after exposure to the sphingolipid metabolite mimetics was examined by MTT cytotoxicity assay. HepG2, A431, HeLa, MCF-7 and SA cells (7000 cells/well) were seeded in each well of a 96-well plate for 24 h. New medium was added to give final concentrations of 0 to 200 μM of the sphingolipid metabolite mimetics. Then, 50 μl of 1 mg/ml 3-(4,5-dimethylthiazol-2-yl)-2,5-diphenyltetrazolium bromide (MTT, Sigma-Aldrich Chemical) was added to each well for 4 h incubation at 37° C. The purple formazan formed was then solubilized by DMSO and absorbance at 570 nm was read by a microplate reader (Molecular Devices, Sunnyvale, Calif.).

MCF-7 = experiment: MTT cytotoxicity assay, MCF-7 (breast cancer); conditions: Homo sapiens, MCF7; Breast Cancer MCF-7, MTT
Experimental: as §1

A431 = experiment: MTT cytotoxicity assay, A431 (squamous carcinoma); conditions: Homo sapiens, A-431
Experimental: as §1

[1] = system: multiple types of cancer cells; experiment: MTT cytotoxicity, statements over several cancer cell lines; conditions: for direct anti-cancer cell activity: summary statement
Experimental: as §1

SiHa = experiment: MTT cytotoxicity assay, SiHa (ovarian cancer as headed); conditions: Homo sapiens, Cervical Cancer SiHa
SW620 = experiment: MTT cytotoxicity assay, SW620 (colon cancer); conditions: Homo sapiens, SW-620
HepG2 = experiment: MTT cytotoxicity assay, HepG2 (liver cancer); conditions: Homo sapiens
Experimental: as §1

HELA cells = experiment: Drug sensitivity MTT assay with TRAIL, HELA; parameters: scale not given here; conditions: for NZJU alone mean value (sensitivity, growth inhibition): drug alone (19-100 μM; TRAIL 100 ng/ml)
Experimental: (§2) Cell survival after exposure to the anti-tumor agents was examined by MTT cytotoxicity assay. Cells were seeded in each well of a 96-well plate for 24 h. After incubation with various concentrations of compounds, TRAIL, or both for 48 h, the medium was discarded. Then, 50 μl of 1 mg/ml 3-(4,5-dimethylthiazol-2-yl)-2,5-diphenyltetrazolium bromide (MTT, Sigma-Aldrich Chemical) was added to each well for 4 h incubation at 37° C. The purple formazan formed was then solubilized by DMSO and absorbance at 570 nm was read by a microplate reader (Molecular Devices, Sunnyvale, Calif.).

MCF-7 cells = experiment: Drug sensitivity MTT assay with TRAIL, MCF-7; parameters: scale not given here; conditions: for NZJU alone mean value (sensitivity, growth inhibition): drug alone (19-100 μM; TRAIL 100 ng/ml)
Experimental: as §2

[2] = system: cancer cells (TRAIL resistance); experiment: Sensitization of cancer cells to TRAIL-induced apoptosis, general statements; conditions: summary statement
Experimental: as §2

SW620 cells = experiment: Drug sensitivity MTT assay with TRAIL, SW620; parameters: scale not given here
Experimental: as §2

[3] = enhancement due to co-administration with TRAIL
[4] = mimetic at the dose of its row combined with TRAIL 100 ng/ml, 48 h

Row | Molecule | IC50 (SW480) | IC50 (SA) | IC50 (MCF-7) | IC50 (A431) | direct anti-cancer cell activity [1] | IC50 (SiHa) | IC50 (SW620) | IC50 (HepG2) | further results
1 | CCCCCCCCCCCCCCCCCCNC(=O)[C@@H](NC(=O)/C=C/c1ccccc1)[C@@H](C)O [NZJU26, (E)-N-((2S,3R)-3-hydroxy-1-oxo-1-(octadecylamino)butan-2-yl)-3-phenyl acrylic acid amide] | 123 µM | 47.1 ± 0.54 µM | 39.2 ± 2.21 µM | 177 ± 7.17 µM | direct anti-cancer cell activity | 35.9 ± 2.64 µM | ≥ 200 µM | 128 ± 9.04 µM | 
2 | CCCCCCCCCCCCCCCCCCNC(=O)[C@@H](NC(=O)Cc1c[nH]c2ccccc12)[C@@H](C)O [NZJU29, N-((2S,3R)-3-hydroxy-1-oxo-1-(octadecylamino)butan-2-yl)-indole-3-acetic acid amide] | 60 µM | 54.9 ± 3.9 µM | 37.3 ± 1.82 µM | 31.8 ± 1.93 µM | direct anti-cancer cell activity | 65.8 ± 6.45 µM | 103 ± 7.48 µM | 57.6 ± 2.69 µM | 
3 | CCCCCCCCCCCCCCNC(=O)[C@@H](NC(=O)c1nccc2ccccc12)[C@@H](C)O [NZJU31, N-((2S,3R)-3-hydroxy-1-oxo-1-(tetradecylamino)butan-2-yl)-isoquinoline-1-carboxamide] | 23.6 µM | 24.4 ± 3.6 µM | 22.8 ± 3.94 µM | 23 ± 3.72 µM |  | 21.6 ± 2.26 µM | 30.4 ± 2.09 µM | 28.6 ± 3.77 µM | IC50 ([1]; all five cell lines tested, read-out: IC50 values): < 30 µM
4 | CCCCCCCCCCCCNC(=O)[C@@H](NC(=O)c1cccs1)[C@@H](C)O [NZJU33, N-((2S,3R)-3-hydroxy-1-oxo-1-(dodecylamino)butan-2-yl)-2-thiophene carboxamide] | 30.2 µM | 23.3 ± 3.33 µM | 30.4 ± 2.8 µM | 16.6 ± 2.12 µM | direct anti-cancer cell activity | 23.9 ± 3.65 µM | 29.2 ± 0.57 µM | 30.1 ± 3.84 µM | 
5 | CCCCCCCCCCCCCCCCCCNC(=O)[C@@H](NC(=O)c1cccs1)[C@@H](C)O [NZJU35, N-((2S,3R)-3-hydroxy-1-oxo-1-(octadecylamino)butan-2-yl)-2-thiophene carboxamide] | 89 µM | 53.5 ± 5.32 µM | 25.7 ± 0.47 µM | 33.3 ± 3.32 µM |  | 117 ± 3.9 µM | ≥ 200 µM | 92 ± 7.76 µM | 
6 | CCCCCCCCNC(=O)[C@@H](NC(=O)c1ccccc1)[C@@H](C)O [NZJU39, N-((2S,3R)-3-hydroxy-1-oxo-1-(octylamino)butan-2-yl)-benzamide] | > 200 µM | 34.6 ± 4.17 µM | 111 ± 4.66 µM | 61.3 ± 4.09 µM | direct anti-cancer cell activity | 112 ± 2.43 µM | ≥ 200 µM | 136 ± 5.92 µM | 
7 | CCCCCCCCNC(=O)[C@@H](NC(=O)c1ccco1)[C@@H](C)O [NZJU40, N-((2S,3R)-3-hydroxy-1-oxo-1-(octylamino)butan-2-yl)-Furan-2-carboxamide] | 194 µM | 64.65 ± 0.5 µM | 91.8 ± 4.21 µM | 64.5 ± 0.78 µM |  | 124 ± 8.78 µM | ≥ 200 µM | 192 ± 11.1 µM | 
8 | CCCCCCCCNC(=O)[C@@H](NC(=O)/C=C/c1ccccc1)[C@@H](C)O [NZJU42, (E)-N-((2S,3R)-3-hydroxy-1-oxo-1-(octylamino)butan-2-yl)-3-phenyl acrylic acid amide] | 62.7 µM | 25.6 ± 4.41 µM | 35.06 ± 0.2 µM | 36 ± 3.36 µM |  | 41.4 ± 5.96 µM | 61.35 ± 0.27 µM | 55.6 ± 0.64 µM | 
9 | CCCCCCCCNC(=O)[C@@H](NC(=O)c1cccs1)[C@@H](C)O [NZJU44, N-((2S,3R)-3-hydroxy-1-oxo-1-(octylamino)butan-2-yl)-2-thiophene carboxamide] |  | 60.9 ± 4.29 µM | 72.5 ± 3.37 µM | 32.1 ± 4.6 µM | direct anti-cancer cell activity | 91.85 ± 0.59 µM | 136 ± 42.6 µM | 149 ± 8.7 µM | NZJU alone mean value (sensitivity, growth inhibition) (HELA cells; 48 h): 0.218; Enhanced mean value (HELA cells; [3]): 0.357; combine mean value (sensitivity, growth inhibition) (HELA cells; [4]): 0.315; NZJU alone mean value (sensitivity, growth inhibition) (MCF-7 cells; 48 h): 0.625; NZJU alone mean value (sensitivity, growth inhibition) (MCF-7 cells; 48 h, listed as NZJU1g): efficient at killing MCF-7 cells; Enhanced mean value (MCF-7 cells; [3]): 0.042; combine mean value (sensitivity, growth inhibition) (MCF-7 cells; [4]): 0.717; TRAIL sensitization activity [2]: TRAIL sensitization activity; NZJU alone mean value (sensitivity, growth inhibition) (SW620 cells; drug alone (19-100 μM; TRAIL 100 ng/ml), 48 h): 0.563; Enhanced mean value (SW620 cells; [3]): 0.128; combine mean value (sensitivity, growth inhibition) (SW620 cells; [4]): 0.853
10 | CCCCCCCCCCCCCCNC(=O)[C@@H](N)[C@@H](C)O [NZJU46, (2S,3R)-2-Amino-3-hydroxy-N-tetradecylbutanamide] |  | 11 ± 1.39 µM | 10.7 ± 0.98 µM | 14.6 ± 0.76 µM | direct anti-cancer cell activity | 11 ± 1.39 µM | 18.7 ± 3.81 µM |  | 
11 | CCCCCCCCCCCCNC(=O)[C@@H](NC(=O)c1cc2ccccc2[nH]1)[C@@H](C)O [NZJU47, N-((2S,3R)-3-hydroxy-1-oxo-1-(dodecylamino)butan-2-yl)-indole-2-carboxamide] | 10.2 ± 0.73 µM | 12.3 ± 2.75 µM |  | 10.3 ± 2.78 µM | direct anti-cancer cell activity | 21.25 ± 0.01 µM |  | 12 ± 2.38 µM | IC50 ([1]; multiple types of cancer cells, read-out: IC50): < 20 µM
12 | CCCCCCCCCCCCCCNC(=O)[C@@H](NS(=O)(=O)c1ccc(C)cc1)[C@@H](C)O [NZJU57, N-((2S,3R)-3-hydroxy-1-oxo-1-(tetradecylamino)butan-2-yl)-4-methylbenzsulfonamide] | 11.8 ± 1.38 µM | 10.9 ± 1.25 µM |  | 12 ± 1.87 µM | direct anti-cancer cell activity | 19.2 ± 2.14 µM |  | 10.9 ± 0.54 µM | 
13 | CCCCCCCCCCCCCCNC(=O)[C@@H](NS(=O)(=O)c1cccs1)[C@@H](C)O [NZJU60, N-((2S,3R)-3-hydroxy-1-oxo-1-(tetradecylamino)butan-2-yl)-2-thiophene sulfonamide] | 11.8 ± 1.25 µM | 11.6 ± 2.2 µM |  | 22 ± 0.56 µM | direct anti-cancer cell activity | 20.4 ± 2.47 µM |  | 21.6 ± 2.05 µM | 
14 | CCCCCCCCCCCCCCNC(=O)[C@@H](NS(=O)(=O)c1ccc2ccccc2c1)[C@@H](C)O [NZJU62, N-((2S,3R)-3-hydroxy-1-oxo-1-(tetradecylamino)butan-2-yl)-2-naphthylsulfonamide] | 5.76 ± 1.02 µM | 10.2 ± 0.3 µM |  | 19.6 ± 2.16 µM | direct anti-cancer cell activity | 11.1 ± 1.39 µM |  | 11.4 ± 1.11 µM | 
15 | TRAIL: TNF-related apoptosis-inducing ligand, a death receptor ligand used as apoptosis-inducing agent (protein, UniProt P50591 1-281, looked up) Tumor necrosis factor ligand …: MAMMEVQGGPSLGQTCVLIVIFTVLLQSLCVAVTYVYFTNELKQMQDKYSKSGIACFLKEDDSYWDPNDEESMNSPCWQVKWQLRQLVRKMILRTSEETISTVQEKQQNISPLVRERGPQRVAAHITGTRGRSNTLSSPNSKNEKALGRKINSWESSRSGHSFLSNLHLRNGELVIHEKGFYYIYSQTYFRFQEEIKENTKNDKQMVQYIYKYTSYPDPILLMKSARNSCWSKDAEYGLYSIYQGGIFELKENDRIFVSVTNEHLIDMDHEASFFGAFLVG |  |  |  |  |  |  |  |  | NZJU alone mean value (sensitivity, growth inhibition) (HELA cells; 48 h): 0.036; NZJU alone mean value (sensitivity, growth inhibition) (MCF-7 cells; 48 h): 0.118
